# Results from patent publication US20120214798A1, “Novel Ethanediamone Hepcidine Antagonists” (VIFOR (INTERNATIONAL) AG, priority 2009, published 2012).
# Target: T1, human ferroportin (Homo sapiens, UniProt Q9NP59)
# T1 construct: expressed in transfected cells
# T1 sequence (Q9NP59 1-571): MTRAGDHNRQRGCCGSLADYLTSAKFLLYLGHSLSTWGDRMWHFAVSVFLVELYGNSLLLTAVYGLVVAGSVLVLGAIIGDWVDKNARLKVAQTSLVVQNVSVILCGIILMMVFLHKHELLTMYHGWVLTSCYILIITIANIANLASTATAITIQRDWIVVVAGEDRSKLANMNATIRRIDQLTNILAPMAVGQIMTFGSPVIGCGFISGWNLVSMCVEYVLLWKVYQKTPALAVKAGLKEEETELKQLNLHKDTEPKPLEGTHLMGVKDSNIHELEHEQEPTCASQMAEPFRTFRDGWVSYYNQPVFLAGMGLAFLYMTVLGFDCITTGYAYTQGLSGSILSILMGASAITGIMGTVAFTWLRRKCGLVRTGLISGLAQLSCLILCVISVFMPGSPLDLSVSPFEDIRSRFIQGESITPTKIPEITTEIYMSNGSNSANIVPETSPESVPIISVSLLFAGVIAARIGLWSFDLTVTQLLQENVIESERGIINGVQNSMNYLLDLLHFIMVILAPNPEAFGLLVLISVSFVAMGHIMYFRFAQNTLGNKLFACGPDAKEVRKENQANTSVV
# Assay: Ferroportin internalization assay (inhibition of hepcidin-induced internalization of Fpn, MDCK-FPN-HaloTag cells)
# Assay type: cell-based
# Details: 100 nM hepcidin
# Method: The hepcidin-antagonistic action of the ethanediamine compounds of the present invention was determined by means of the “ferroportin internalization assay” described in the following.
# Organic compounds of low molecular weight which counteract the biological actions of hepcidin on its receptor, the iron exporter ferroportin (Fpn), were identified on the basis of their ability to inhibit hepcidin-induced internalization of Fpn in living cells. For this purpose, a stable cell line (Madin-Darby canine kidney, MDCK) was produced which constitutively expresses human ferroportin fused recombinantly at its C terminus with a fluorescent reporter protein (HaloTag®, Promega Corp.). The internalization of Fpn was monitored by labelling these cells with fluorescent ligands (HaloTag®-TMR, tetramethylrhodamine) which join covalently on to the HaloTag reporter gene fused with the Fpn. […] Optimized image analysis algorithms were used to ascertain the cell surface and to quantify the corresponding membrane fluorescence associated with the Fpn-HaloTag fusion protein. This assay allows a quantitative image-based analysis in order to quickly evaluate compounds which can block hepcidin-induced internalization of Fpn. This assay is a direct in vitro pendant of the in vivo action mechanism proposed for medicament candidates and is therefore suitable as an initial assay with a high throughput for identifying compounds which counteract the action of hepcidin on its receptor ferroportin.
# • 7,500 cells per well (MDCK-FPN-HaloTag) were transinoculated in 50 μl of DMEM medium (Dulbeccos Modified Eagle Medium with 10% foetal bovine serum (FBS), which contained 1% penicillin, 1% streptomycin and 450 μg/ml of G-418) in microtitre plates with 384 wells (384 Cell carrier plates, Perkin Elmer, cat. no. 6007430), followed by incubation overnight at 37° C./5% CO2. • The volume of the medium was reduced to 10 μl, and 10 μl of 5 μM HaloTag-TMR ligands (Promega, cat. no. G 8251) were added in DMEM medium in order to stain the Fpn-HaloTag fusion protein. • 15 min incubation at 37° C./5% CO2 • The HaloTag-TMR ligand was removed and the cells were washed with fresh DMEM medium and the volume was reduced to 20 μl of DMEM medium. • 3 μl per well of a solution of the test compound (dissolved DMSO) were added ([…]). • 7 μl of […] hepcidin (Peptides International, cat. no. PLP-4392-s, 100 μM stock solution diluted in water in DMEM medium) were added per well up to a final hepcidin concentration of 100 nM. • The cells were incubated overnight at 37° C./5% CO2. • The cells were fixed by adding paraformaldehyde (PFA, Electron Microscopy Sciences, cat. no. 15710-S) directly to the cells up to a final concentration of 4%, followed by incubation at room temperature for 15-20 minutes. • The PFA solution was removed and the cells were washed with PBS (phosphate-buffered saline solution), in each case 30 μl remaining in the plate. • 20 μl of Draq5 (Biostatus, cat. no. DR 51000) were added up to a final concentration of 2.5 μM in order to stain the cell nuclei, and the plates were sealed with a foil plate seal. • The plates were analysed with the Opera Plate Imager (Opera Confocal Plate Imager, Perkin Elmer) with 7 images per well; 440 ms exposure time per image, […] focal point height.
row,SMILES,I [%] (median inhibition [%] at 10 μm substance conc.)
1,c1ccc(C(CN2CCC(N3CCCCC3)CC2)NCCN2CCOCC2)cc1 (stereo not drawn) [Example 5],<50
2,"Fc1ccc(C(CN2CCN(c3cnccn3)CC2)NCc2ccccn2)cc1 (stereo not drawn) [Example 1, [1-(4-Fluoro-phenyl)-2-(2,3,5,6-tetrahydro-[1,2′]bipyrazinyl-4-yl)-ethyl]-pyridin-2-ylmethyl-amine]",>50
3,COc1ccc(CNC(CN2CCC(N3CCCCC3)CC2)c2ccccc2)cc1 (stereo not drawn) [Example 6],<50
4,"O=C(C1CCCO1)N1CCN(CC(NCc2ccccn2)c2ccc(F)cc2)CC1 (stereo not drawn) [Example 2, (4-{2-(4-Fluoro-phenyl)-2-[(pyridin-2-ylmethyl)-amino]-ethyl}-piperazin-1-yl)-(tetrahydro-furan-2-yl)-methanone]",<50
5,COCCN1CCN(C(CN2CCC(N3CCCCC3)CC2)c2ccccc2)CC1 (stereo not drawn) [Example 4],>50
6,"O=C(C1CCCO1)N1CCN(CC(NCc2ccccn2)c2ccccc2)CC1 (stereo not drawn) [Example 3, (4-{2-Phenyl-2-[(pyridin-2-ylmethyl)-amino]-ethyl}-piperazin-1-yl)-(tetrahydro-furan-2-yl)-methanone]",<50
